Experimental data taken from patent publication US8426427B2, “Fused heterocyclic derivative, pharmaceutical composition comprising the derivative, and use of the composition for medical purposes” (Kissei Pharmaceutical Co., Ltd., priority 2007, dated 2013).

Key:
human GnRHR1 = biological target: T1, human GnRHR1 (Homo sapiens, UniProt P30968); assay: Inhibitory effect for the change of calcium levels in GnRH-stimulated cells (hGnRHR1#1 HEK293 cells); format: cell-based; details: hGnRHR1#1 cells (HEK293 stably expressing human GnRHR1), 10 nM GnRH added, FLIPR calcium dye; read-out: IC50 (drug concentration at which 50% GnRH-stimulated intracellular calcium flux was inhibited)
T1 construct: expressed in transfected cells
T1 sequence (P30968 1-328): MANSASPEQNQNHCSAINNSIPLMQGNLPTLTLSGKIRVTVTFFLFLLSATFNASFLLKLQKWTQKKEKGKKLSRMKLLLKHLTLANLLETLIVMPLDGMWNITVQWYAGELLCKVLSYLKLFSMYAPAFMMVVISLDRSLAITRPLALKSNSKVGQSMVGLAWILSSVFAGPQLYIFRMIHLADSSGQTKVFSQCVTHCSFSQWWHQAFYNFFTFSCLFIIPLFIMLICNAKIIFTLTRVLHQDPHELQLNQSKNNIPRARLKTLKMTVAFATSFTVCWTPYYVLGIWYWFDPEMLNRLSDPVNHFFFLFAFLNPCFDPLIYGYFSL
Source text: 1) Cloning and Construction of the Vector Expressing Human GnRH Receptor1 (GnRHR1)
Using cDNA derived from human pituitary (BECTON DICKINSON) as a template, the DNA fragment coding 45 to 1115 by of human GnRHR1 (Accession No. L03380), which was reported by Kakar et al., was amplified by PCR method and inserted into the multi-cloning site of pcDNA3.1(+) (Invitrogen). The DNA sequence inserted was perfectly matched to the previously reported sequence.
2) Establishment of Cell Line Stably Expressing Human GnRH Receptor1 HEK293 Cells
The expression vector of human GnRHR1 gene, was digested by XhoI into a linear DNA. The linear DNA was transfected into HEK293 cells by means of lipofection (Lipofectamine2000: Invitrogen). Neomycin resistant cell lines were selected by culture in the medium containing G418 (Invitrogen) at 1 mg/mL, and then the change of calcium levels in GnRH-stimulated cells was measured by the method described below.
3) Assay of Inhibitory Effect for the Change of Calcium Levels in GnRH-Stimulated Cells
Antagonizing effect of compounds for human GnRHR1 was evaluated by depression of calcium levels in GnRH-stimulated cells. hGnRHR1#1 cells were seeded into a 96-well culture plate at a density of 1.5×10^5 cells/well and cultured for a day. […] Then, intracellular calcium levels were determined under the following condition by using FLEX STATION (Molecular Devices). […]

[1] = Assay for oral absorbability: plasma drug concentration after oral administration to rats; format: in vivo, SD rats; details: for C360 (plasma drug concentration at 360 minutes after administration) / Cmax: fasted male SD rats, oral 3 mg/kg, plasma; for availability by oral administration compared with Control compound 1 / sustainability of blood concentration 6 hours after oral administration compared with Control compound / Cmax: rat; for Cmax: LC-MS/MS, read-out: Cmax (maximum plasma drug concentration)
Protocol: Assay for Oral Absorbability
1) Preparation of the Samples for Measurement of the Drug Concentration after Oral Administration
As experimental animal, overnight fasted SD rats (Charles River, male, 7 weeks of age, 170-210 g) were used. Three mg of a test compound was dissolved by adding 0.2 mL of N,N-dimethylacetoamide, 9.794 mL of 0.5% aqueous methylcellulose solution and 0.006 mL of 2N NaOH, and then 0.3 mg/mL solution was prepared. The body weights of rats were measured, and the solution of the test compound was administered orally at the dose of 10 mL/kg (3 mg/kg). The oral administration was performed with gastric tube for rat and 2.5 mL syringe. The sampling times for collection of blood were 15, 30, 60, 120, 240 and 360 minutes after the oral administration. The blood was centrifuged, and the plasma was used as the sample for measurement of the drug concentration in blood.
2) Measurement of the Drug Concentration
To 0.025 mL of the plasma obtained in 1) described above, 0.1 mL of an adequate internal standard material was added according to the usual method, and then deproteinization was performed by adding 0.875 mL of acetonitrile. After centrifugation, 0.005 mL of the supernatant was injected into LC-MS/MS. The drug concentration in plasma was measured by LC-MS/MS method under the conditions as follows. To 0.05 mL of the blank plasma were added the internal standard material and various test compounds adequately according to the usual method, similar operating described above was done, and then the standard curves were prepared.
In the oral administration, the maximum plasma drug concentration (Cmax) and the plasma drug concentration at 360 minutes after administration (C360) are shown in Tables 8 and 9, respectively.

IC50 (human GnRHR1) [µM]	C360 (plasma drug concentration at 360 minutes after administration) [1] [ng/mL]	Cmax [1] [ng/mL]	Compound	availability by oral administration compared with Control compound 1 [1]	sustainability of blood concentration 6 hours after oral administration compared with Control compound [1]
0.051	1010	17600	COCCOc1ccc(F)c(F)c1CN(C)c1ccc(F)c(-n2c(=O)[nH]c3csc(C(=O)O)c3c2=O)c1 [Example 1, 5-Carboxy-3-(2-fluoro-5-{N-[2,3-difluoro-6-(2-methoxyethoxy)benzyl]-N-methylamino}-phenyl)thieno[3,4-d]pyrimidine-2,4(1H,3H)-dione]	more excellent availability than the Control compound 1	more superior in sustainability than the Control compound
0.133	2170	14900	CN(Cc1c(F)cccc1F)c1ccc(F)c(-n2c(=O)[nH]c3csc(C(=O)O)c3c2=O)c1 [Example 2]	more excellent availability than the Control compound 1	more superior in sustainability than the Control compound
